Experimental data as given in US9995734B2, “Human T cell line assay for evaluating the immunologic identity of glatiramer acetate preparations” (Mylan Inc., priority 2013, dated 2018).

How the values were obtained:
[1] = tested on: Donor 3 COP T-cell lines (165-B6C, 165-C7C, 165-D3C, 165-F3C, 165-F6C); assay: MHC DR restriction testing (ATP proliferation with autologous and partially HLA-DR matched APC), Donor 3 COP T-cell lines; assay type: cell-based, human; details: 20 μg/mL
Method: MHC DR restriction testing of cell lines was carried out by measuring the proliferation response of the cell lines as described above in the presence of an array of APC selected based on the known HLA-DR loci of the original PBMC donor for the cell line tested, including autologous APC (B-LCL). The donors used are described in Table 2.
To define the MHC molecule used to present antigen to GA specific T cell lines, GA specific responses were measured in the presence of autologous APC and in the presence of APC matching one of the T cell donor's HLA-DR alleles. Therefore at least 3 APC were used in each experiment: autologous APC, APC matching DR allele 1 but not allele 2 and a third APC matching allele 2 but not allele 1. In some experiments a fourth APC B-LCL was used. A no antigen negative control was used. APC were inactivated by incubation with 50 ug/mL mitomycin C. Following inactivation, cells were washed three times to remove mitomycin C and suspended in X-VIVO 15 medium at 1×10^6 cells per mL. GA was added to the cell suspension to a final concentration of 20-60 μg/mL. The cells were incubated with antigen for 1 hour at 37° C. to allow antigen uptake and binding. The cell suspension was then centrifuged to pellet the cells and the cell pellet was washed once with medium. APC were adjusted to 2×10^5 cells per mL in X-VIVO 15 medium and added to opaque 96-well plates at 100 μL per well. T-cell suspensions of 2-4×10^5 cells per mL (unless otherwise specified) were added to the 96-well plates at 100 μL per well and the cultures incubated 4 days before measuring cell numbers using CellTiter Glo® (to evaluate proliferation).
Alternatively, APC were not pulsed. Instead, each well contained 10 ug/mL antigen, 50 μl APC and 100 μL of T cells.
After incubating for 4 days at 37° C. (5% CO2), 100 μL were removed from each well, combined with 100 μL CellTiterGlo reagent, and luminescence was measured using a Packard Fusion. Results were expressed in relative light units (RLU).
As described in the Methods, T-cell lines were tested for MHC restriction by measuring proliferation following incubation with APC. Mitomycin-treated autologous APC, and test APC, e.g., from donors having at least one HLA-DR match with the original PBMC donor were employed. The values in the data tables below are in RLU.
(§1) Donor 3 T-cell line 165-B6C was assayed for proliferation, using mitomycin-treated APC from Donors 3, 5, and 6 that had been incubated in the presence or the absence of 20 μg/mL COP. T-cell line 165-B6C had been restimulated six times (not including the initial stimulation) with antigen before the MHC restriction assay was carried out. The data, shown in Table 68 and FIG. 12A, indicate that […] is restricted by HLA-DRβ1*11.
as §1, with “165-C7C” for “165-B6C”, “five” for “six”, “69” for “68”, “12B,” for “12A,”
T-cell line 165-D3C had been restimulated six times (not including the initial stimulation) with antigen before the MHC restriction assay was carried out. The data, shown in Table 70 and FIG. 13A, indicate that 165-D3Cis restricted by HLA-DRβ1*1501.
T-cell line 165-F3C had been restimulated eight times (not including the initial stimulation) with antigen before the MHC restriction assay was carried out. The data, shown in Table 71 and FIG. 13B, indicate that 165-F3C is restricted by HLA-DRβ1*11.
Donor 3 T-cell line 165-F6C was assayed for proliferation, using mitomycin-treated APC from Donors 3, 5, and 6 that had been incubated in the presence or the absence of 20 μg/mL COP. […]

[2] = tested on: Donor 1 Human T-Cell Lines (GMA-stimulated); assay: BrdU uptake proliferation assay, Donor 1 T-cell lines initially stimulated with GMA; assay type: cell-based; details: 10 μg/mL GMA
Method: Proliferation was evaluated by measuring ATP content using a luminescent method (CellTiter Glo Luminescent Cell Viability Assay, Promega, Madison, Wis., cat. #G7571) or by measuring BrdU uptake by ELISA (Millipore cat. #2752), in both cases following kit instructions. A split well format was used. Cells in each well were resuspended and 65 μl transferred to the wells of each of two new U-bottom 96-well plates, to generate the replicate plates. For the initial screening, the original 96-well plate received mitomycin-treated autologous PBMC as APC plus 10 μg/mL antigen (GA). A first replicate plate received 100 μl., mitomycin-treated PBMC alone (2×10^5), and no antigen, and a second replicate plate received 100 μL mitomycin-treated PBMC plus GA at a final concentration of 10 μg/mL. Therefore, all three plates received autologous APC (PBMC) treated with mitomycin C to prevent cell division. […] The latter two plates were incubated for 3 days at 37° C., 6% CO2 before adding CellTiter Glo or BrdU and measuring signal. IL-2 was added at 10 U/mL to the original 96-well plate for expansion on Day 17. For subsequent screenings, mitomycin-treated EBV-transformed autologous B-LCL (2×10^5 to 5×10^5 cells/mL) were used as APC.
GMA-responsive cell lines were obtained from Donor 1 PBMC as described above (2×10^5 cells/well, i.e., 1×10^6 cells/mL, plated with 10 μg/mL GMA; IL-2 added on Days 3 and 7). In a split well assay begun on Day 12 the cells were stimulated with 10 μg/mL GMA and 1×10^5 mitomycin-treated autologous PBMC as APC. BrdU was added on Day 3, cells were incubated 4.5 hours and fixed, and uptake measured. […] These cell lines each produced an increase in signal of at least 50% relative to (no antigen) control.

glatiramer acetate [GMA]
Proliferation with antigen-incubated APC ([1]; T-cell line 165-B6C, B-LCL Donor 3 (Autologous) DRβ1*1501/DRβ1*11): 2237 RLU
Proliferation with antigen-incubated APC ([1]; T-cell line 165-B6C, B-LCL Donor 5 DRβ1*01/DRβ1*11): 8944 RLU
Proliferation with antigen-incubated APC ([1]; T-cell line 165-B6C, B-LCL Donor 6 DRβ1*1501/DRβ1*13): 322 RLU
Proliferation with antigen-incubated APC ([1]; T-cell line 165-C7C, B-LCL Donor 3 (Autologous) DRβ1*1501/DRβ1*11): 13714 RLU
Proliferation with antigen-incubated APC ([1]; T-cell line 165-C7C, B-LCL Donor 5 DRβ1*01/DRβ1*11): 94535 RLU
Proliferation with antigen-incubated APC ([1]; T-cell line 165-C7C, B-LCL Donor 6 DRβ1*1501/DRβ1*13): 1189 RLU
Proliferation with antigen-incubated APC ([1]; T-cell line 165-D3C, B-LCL Donor 3 (Autologous) DRβ1*1501/DRβ1*11): 106840 RLU
Proliferation with antigen-incubated APC ([1]; T-cell line 165-D3C, B-LCL Donor 5 DRβ1*01/DRβ1*11): 12173 RLU
Proliferation with antigen-incubated APC ([1]; T-cell line 165-D3C, B-LCL Donor 7 DRβ1*1501/DRβ1*03): 149506 RLU
Proliferation with antigen-incubated APC ([1]; T-cell line 165-F3C, B-LCL Donor 3 (Autologous) DRβ1*1501/DRβ1*11): 45559 RLU
Proliferation with antigen-incubated APC ([1]; T-cell line 165-F3C, B-LCL Donor 5 DRβ1*01/DRβ1*11): 39565 RLU
Proliferation with antigen-incubated APC ([1]; T-cell line 165-F3C, B-LCL Donor 6 DRβ1*1501/DRβ1*3): 7869 RLU
Proliferation with antigen-incubated APC ([1]; T-cell line 165-F6C, B-LCL Donor 3 (Autologous) DRβ1*1501/DRβ1*11): 12562 RLU
Proliferation with antigen-incubated APC ([1]; T-cell line 165-F6C, B-LCL Donor 5 DRβ1*01/DRβ1*11): 3142 RLU
Proliferation with antigen-incubated APC ([1]; T-cell line 165-F6C, B-LCL Donor 6 DRβ1*1501/DRβ1*13): 30293 RLU
BrdU uptake ([2]; 222-AC11, control 0.680): 1.244 OD450
BrdU uptake ([2]; 222-AF2, control 0.454): 1.119 OD450
BrdU uptake ([2]; 222-AF5, control 0.606): 1.133 OD450
BrdU uptake ([2]; 222-AG11, control 0.359): 0.875 OD450
BrdU uptake ([2]; 222-AG12, control 0.448): 0.949 OD450
BrdU uptake ([2]; 222-BA4, control 0.370): 0.603 OD450
BrdU uptake ([2]; 222-BA11, control 0.255): 0.783 OD450
BrdU uptake ([2]; 222-BC11, control 0.499): 0.921 OD450
increase in signal relative to (no antigen) control ([2]; eight Donor 1 cell lines of Table 4): at least 50%
